Measurements: patent US11878008B2, “Composition for preventing or treating atopic dermatitis” (AMOREPACIFIC CORPORATION, priority 2017, dated 2024)
Entries after “also recorded” stand apart in the source; their conditions may differ.

How the values were obtained:
[1] = rats, oral dose of 3 mg/kg; cited from earlier work
[2] = rats; cited from earlier work
[3] = cited from earlier work
[4] = Change in body temperature after oral administration in mice; format: in vivo, Balb/c mice; conditions: for change in body temperature, dose dependence: up to 4 hours, AMG 517 0.03, 0.1, 0.3 mg/kg, compound of Formula 1 3, 10, 30 mg/kg, FIGS. 2A, 2B
Source text: Meanwhile, when the same drug was orally administered, a concentration-dependent increase in body temperature due to TRPV1 antagonism was observed as expected (see FIGS. 2A and 2B).

[5] = C57BL/6, mouse, in vivo, 2 h
Method: As described above, AMG 517, a representative reference drug as a TRPV1 antagonist, and the compound of Formula 1 of the present invention were tested for the increase in body temperature during transdermal administration.

[6] = Change in body temperature in healthy volunteers after oral administration; format: in vivo, human; conditions: oral 5 mg or 10 mg once a day for 8 days; healthy adult volunteers; FIGS. 6A, 6B
Method: Ten healthy adult volunteers were divided into two groups, and the compound of Formula 1 was orally administered to the volunteers in each of the groups at a dose of 5 mg or 10 mg once a day for 8 days. Thereafter, a placebo was administered to the two volunteers in each of the groups, and the body temperatures were measured for 14 days. Then, the mean body temperature of the volunteers and a change in body temperature were determined.

[7] = Change in body temperature in healthy volunteers after percutaneous administration; format: in vivo, human; conditions: percutaneous application to back skin, 7 to 30 days
Source text: The composition of Example 1 including the compound of Formula 1 was percutaneously applied to healthy volunteers other than the patients with atopic dermatitis to check a change in body temperature.
The 24 healthy adult volunteers were divided into three groups, and the volunteers in each of the groups were then randomly allocated into a test group of 6 volunteers (Example 1) and a placebo group of 2 volunteers (Comparative Example 1). The same clinician applied the composition onto the volunteers' back skins at a dose of 5, 15, 50 mg per 5 g every morning according to a predetermined administration method. In this case, the composition was applied for 7, 15, 30 days with a size of 25×40 cm and an area of 1,000 cm^2.
A range of the body temperatures measured for the 24 volunteers in a clinical trial period was in a range of 35.4 to 37.3° C. The results of the changes in body temperatures from the baseline before the drug administration in each of the groups are as listed in the following Table 13.

Structure (SMILES) | body temperature increase [1] | effective concentration to maximize analgesic efficacy [2] | concentration dependence of hyperthermia ([3]; oral administration for treatment of dental pain/toothache) | body temperature increased to ([3]; oral, group administered a dose of 25 mg) [°C] | change in body temperature at lowest dose ([4]; 0.03 mg/kg) | change in body temperature, dose dependence [4] | increase in body temperature [5] [°C] | body temperature change, dose dependence [6] | clinically significant findings associated with changes in body temperature [7]
CC(=O)Nc1nc2c(Oc3cc(-c4ccc(C(F)(F)F)cc4)ncn3)cccc2s1 [AMG 517] | about 1.3 °C | less than 0.3 mg/kg | concentration-dependent side effect of hyperthermia; also recorded: increased body temperature, which was proportional to a serum AMG 517 concentration | 39.9 | significantly increased body temperature | increased body temperature in a dose-dependent manner | ~1.59 |  | 
CCCc1nc(C(F)(F)F)ccc1/C=C/C(=O)N[C@H](C)c1cc(F)c(NS(C)(=O)=O)c(F)c1 [compound of Formula 1, (R)-N-[1-(3,5-difluoro-4-methanesulfonylamino-phenyl)-ethyl]-3-(2-propyl-6-trifluoromethyl-pyridin-3-yl)-acrylamide] |  |  |  |  |  | increased body temperature in a dose-dependent manner | ~0.84 | increased the body temperature in a dose-dependent manner; also recorded: increased body temperature (hyperthermia) were caused in a concentration-dependent manner | such an increase in body temperature was not observed
